Read-outs that look alike come from different tables or passages of the source.
What was measured:
[1] = system: COVID-19; settings: RECOVERY platform trial; cited from earlier work
[2] = in vivo; cited from earlier work
[3] = system: COVID-19; settings: 5 mg daily, without achieving statistical significance; cited from earlier work
[4] = system: SARS-COV-2; settings: for Increase in viral clearance rate: first 7 days of therapy; for Increase in viral clearance rate / Increase in symptom resolution rate: versus control; for Increase in symptom resolution rate: first week of therapy; for Viral clearance at seven days in men: spironolactone compared to dutasteride; for Odds ratio for viral clearance within seven days when used with nitazoxanide: multivariate analysis; for Adverse events: short duration administration; for Resolution of Symptoms Odds ratio / Viral Clearance Odds ratio: multivariate logistic regression, within 7 days, azithromycin with the listed drug(s), hydroxychloroquine = reference, N = 475; for Resolution of Symptoms Odds ratio: except anosmia, ageusia
[5] = system: SARS-COV-2; settings: dutasteride 0.5 mg per day, male patients; cited from earlier work
[6] = system: COVID-19; settings: cited from earlier work
[7] = system: COVID-19; experiment: Proxalutamide treatment for hospitalized COVID-19 patients, double-blinded placebo-controlled trial, preliminary report; assay type: in vivo; settings: n = 294
[8] = system: SARS-COV-2; settings: cited from earlier work
[9] = system: COVID-19
[10] = system: COVID-19; settings: single case, after starting proxalutamide; cited from earlier work
[11] = system: COVID-19; settings: intensive care observational series; cited from earlier work

Compound: COc1cc2c(c(OC)c1OC)-c1ccc(OC)c(=O)cc1[C@@H](NC(C)=O)CC2 [Colchicine]
- 28-day mortality rate ratio [1]: 1.01

Compound: CC(C)(C)NC(=O)[C@H]1CC[C@H]2[C@@H]3CC[C@H]4NC(=O)C=C[C@]4(C)[C@H]3CC[C@]12C [finasteride]
- Half-life [2]: six
- Inpatient mortality [3]: reduced inpatient mortality

Compound: CC(=O)S[C@@H]1CC2=CC(=O)CC[C@]2(C)[C@H]2CC[C@@]3(C)[C@@H](CC[C@@]34CCC(=O)O4)[C@H]12 [spironolactone]
- Increase in viral clearance rate [4]: 320%
- Increase in symptom resolution rate [4]: 70%
- Viral clearance at seven days in men [4]: 40%
- Odds ratio for viral clearance within seven days when used with nitazoxanide ([4]; with nitazoxanide): 10.1
- Adverse events [4]: no adverse events noted
- Viral clearance at seven days ([4]; spironolactone initiated at the time of COVID-19 diagnosis): 34%
- Viral clearance at seven days, added to ivermectin ([4]; with ivermectin): 26%
- Viral clearance at seven days, added to nitazoxanide ([4]; with nitazoxanide): 42%

Compound: C[C@]12C=CC(=O)N[C@@H]1CC[C@@H]1[C@@H]2CC[C@]2(C)[C@@H](C(=O)Nc3cc(C(F)(F)F)ccc3C(F)(F)F)CC[C@@H]12 [dutasteride]
- Half-life [2]: five
- Increase in viral clearance rate [4]: 320%
- Increase in symptom resolution rate [4]: 70%
- Viral clearance at seven days in men [4]: 21%
- Odds ratio for viral clearance within seven days when used with nitazoxanide ([4]; with nitazoxanide): 7.1
- Viral clearance at seven days among nitazoxanide male users ([4]; nitazoxanide male users): 21%
- Adverse events [4]: no adverse events noted
- Viral clearance at seven days [5]: 64.3%

Compound: Ivermectin
- Resolution of Symptoms Odds ratio [4]: 1.45
- Viral Clearance Odds ratio [4]: 0.32

Compound: CC(=O)Oc1ccccc1C(=O)Nc1ncc([N+](=O)[O-])s1 [Nitazoxanide]
- Resolution of Symptoms Odds ratio [4]: 2.08
- Viral Clearance Odds ratio [4]: 1.88
- Association with faster viral clearance ([4]; two times a day for 6 days combined with azithromycin): not associated faster clearance

Compound: CC1(C)C(=O)N(c2ccc(C#N)c(C(F)(F)F)c2F)C(=S)N1c1ccc(CCCc2ncco2)nc1 [proxalutamide]
- Reduction of the risk of hospitalization ([6]; compared to usual care): 91%
- 30-day hospitalization rate ([6]; proxalutamide 200 mg for up to seven days, men): 2.2%
- Mortality (%) Day 14 ([7]; hospitalized COVID-19 patients, proxalutamide 300 mg q.d.): 3.7%
- Discharged (%) Day 14 [7]: 89.1%
- Full clinical remission (%) Day 14 [7]: 75.9%
- HFO, NIV, or MV use, or death (%) Day 14 [7]: 4.8%
- Hospital Length Stay (Days) Mean ± SD [7]: 6.3 ± 5.3 days
- Hospital Length Stay (Days) Median (IQR) [7]: 5.0 days
- Improvement in clinical status - Ordinary scale (days) One point Mean ± SD [7]: 3.0 ± 5.5 days
- Improvement in clinical status - Ordinary scale (days) One point Median (IQR) [7]: 1.0 days
- Improvement in clinical status - Ordinary scale (days) Two points Mean ± SD [7]: 5.5 ± 7.1 days
- Improvement in clinical status - Ordinary scale (days) Two points Median (IQR) [7]: 3.0 days
- New mechanical ventilation (MV) or Death (%) Day 14 [7]: 4.4%
- No HFO or NIV use (%) Day 14 [7]: 95.2%
- No oxygen use (%) Day 14 [7]: 92.5%
- Viral clearance at seven days in men ([8]; men): 81%
- Viral clearance at seven days in women ([8]; women): 85%
- 28-day median ordinal scale score ([9]; COVID-19 8-point ordinal scale): 1
- 14-day median ordinal scale score ([9]; COVID-19 8-point ordinal scale, intention-to-treat, proxalutamide 300 mg/day): 1
- Median post-randomization time to recovery ([9]; alive hospital discharge): 5 days
- 14-day recovery rate ([9]; alive hospital discharge (scores 1, 2), intention-to-treat): 81.4%
- Less likely to die than patients in the control group ([9]; during the study period): 84%
- Median hospitalization time (days) ([9]; human, in vivo): eight
- Treatment emergent adverse events ([9]; human, in vivo): limited to diarrhea
- Difference in the proportion of alive hospital discharge ([9]; increased until day 11): 75%
- 28-day all-cause mortality rate ([9]; intention-to-treat): 11.0%
- Hazard ratio for all-cause mortality (death) ([9]; over 28 days, versus placebo): 0.16
- Risk ratio for death ([9]; over 28 days, versus placebo): 0.22
- Number needed to treat (NNT) to prevent one death ([9]; over twenty-eight days): 3
- Adverse events grades 4 or 3 ([9]; proxalutamide arm): 2.2%
- Diarrhea ([9]; proxalutamide arm): 16.1%
- Irritability ([9]; proxalutamide arm): 1.3%
- 14-day recovery ratio ([9]; versus placebo): 2.28
- 28-day recovery ratio ([9]; versus placebo): 1.81
- Higher recovery rate than placebo at 28 days ([9]; versus placebo): 81%
- Higher recovery rate than placebo at day 14 ([9]; versus placebo): 128%
- Time to striking symptom resolution and laboratory improvement [10]: twenty-four

Compound: CCN(CCO)CCCC(C)Nc1ccnc2cc(Cl)ccc12 (stereo not shown) [Hydroxychloroquine]
- Resolution of Symptoms Odds ratio [4]: 1
- Viral Clearance Odds ratio [4]: 1

Compound: C[C@]12CCC(=O)C=C1C=C[C@@H]1[C@@H]2CC[C@@]2(C)[C@H]1CC[C@@]21CCC(=O)O1 [Canrenone]
- Fatalities [11]: reduced fatalities

— US20240197701A1, “ANDROGEN RECEPTOR INHIBITION TO TREAT SEPSIS AND SHOCK” (priority 2021, published 2024)
